Assay results: ChEMBL document CHEMBL4004854, “Pyrrolo[3',2':6,7]cyclohepta[1,2-b]pyridines with potent photo-antiproliferative activity” (Eur J Med Chem, 2017)
The source made the active and inactive calls. The calls are words filed in the database; no cut-off is given here.

Legend:
[1] = system: MCF7; experiment: Phototoxicity against human MCF7 cells assessed as reduction in cell viability preincubated for 30 mins followed by 1.25 J/cm2 UV light irradiation measured after 48 hrs by MTT assay; type: functional, cell-based; conditions: MCF7, light or radiation study
[2] = system: K562; experiment: Phototoxicity against human K562 cells assessed as reduction in cell viability preincubated for 30 mins followed by 1.25 J/cm2 UV light irradiation measured after 48 hrs by MTT assay; type: functional, cell-based; conditions: K562, light or radiation study
[3] = system: MCF7; experiment: Phototoxic index, ratio of CC50 for human MCF7 cells under dark condition to EC50 for human MCF7 cells under UV light irradiated condition
[4] = system: K562; experiment: Phototoxic index, ratio of CC50 for human K562 cells under dark condition to EC50 for human K562 cells under UV light irradiated condition
[5] = system: Jurkat; experiment: Phototoxic index, ratio of CC50 for human Jurkat cells under dark condition to EC50 for human Jurkat cells under UV light irradiated condition
[6] = Dark toxicity against human Jurkat cells assessed as reduction in cell viability after 72 hrs by MTT assay; type: cell-based
[7] = Dark toxicity against human K562 cells assessed as reduction in cell viability after 72 hrs by MTT assay; type: cell-based
[8] = system: Jurkat; experiment: Phototoxicity against human Jurkat cells assessed as reduction in cell viability preincubated for 30 mins followed by 1.25 J/cm2 UV light irradiation measured after 48 hrs by MTT assay; type: functional, cell-based; conditions: light or radiation study
[9] = Dark toxicity against human MCF7 cells assessed as reduction in cell viability after 72 hrs by MTT assay; type: cell-based
[10] = system: Jurkat; experiment: Phototoxicity against human Jurkat cells assessed as reduction in cell viability at 0.1 uM preincubated for 30 mins followed by 2.5 J/cm2 UV light irradiation measured after 72 hrs in presence of antioxidant GSH by MTT assay; type: functional, cell-based
[11] = system: MCF7; experiment: Induction of apoptosis in human MCF7 cells assessed as caspase-3 activation at 0.5 uM upon 2.5 J/cm2 UV light irradiation measured after 24 hrs by Western blot method; type: functional, cell-based
[12] = system: Jurkat; experiment: Phototoxicity against human Jurkat cells assessed as reduction in cell viability at 0.1 uM preincubated for 30 mins followed by 2.5 J/cm2 UV light irradiation measured after 72 hrs in presence of vitamin E by MTT assay; type: functional, cell-based
[13] = system: Jurkat; experiment: Phototoxicity against human Jurkat cells assessed as reduction in cell viability at 0.1 uM preincubated for 30 mins followed by 2.5 J/cm2 UV light irradiation measured after 72 hrs in presence of singlet oxygen scavenger sodium azide by MTT assay; type: functional, cell-based
[14] = system: Escherichia coli; experiment: Induction of Escherichia coli pBR322 DNA oxidative damage at 40 uM upon 7.5 J/cm2 UV-A light irradiation in presence of endonuclease-3 by ethidium bromide staining based electrophoresis
[15] = system: Escherichia coli; experiment: Induction of Escherichia coli pBR322 DNA double strand break assessed as linear form DNA bands at 10 to 40 uM upon 7.5 J/cm2 UV-A light irradiation by ethidium bromide staining based UV transillumination assay
[16] = system: Jurkat; experiment: Induction of lipid peroxidation in human Jurkat cells upon 2.5 J/cm2 UV light irradiation measured after 24 hrs by TBARS assay; type: functional, cell-based
[17] = Solubility of the compound in aqueous acetonitrile solution; type: physicochemical; conditions: buffer
[18] = system: Escherichia coli; experiment: Induction of Escherichia coli pBR322 DNA oxidative damage at 40 uM upon 7.5 J/cm2 UV-A light irradiation in presence of Fpg by ethidium bromide staining based electrophoresis
[19] = system: Jurkat; experiment: Phototoxicity against human Jurkat cells assessed as reduction in cell viability at 0.1 uM preincubated for 30 mins followed by 2.5 J/cm2 UV light irradiation measured after 72 hrs in presence of hydroxyl radical scavenger DMTU by MTT assay; type: functional, cell-based
[20] = system: Escherichia coli; experiment: Induction of Escherichia coli pBR322 DNA single strand break assessed as open circular form DNA bands at 10 to 40 uM upon 7.5 J/cm2 UV-A light irradiation by ethidium bromide staining based UV transillumination assay
[21] = Induction of singlet oxygen photogeneration in aqueous acetonitrile solution of ADPA assessed as photobleaching of anthracene absorption upon 150 Watt mercury light irradiation at 400 nanometer measured up to 2 hrs
[22] = Singlet oxygen sensitizing activity in aqueous acetonitrile solution irradiated with nanosecond laser flash photolysis assessed as lowest triplet-excited state by measuring long lived transient life time at 10^-4 M at 450 nanometer under argon saturated condition by spectroscopic method
[23] = system: MCF7; experiment: Induction of lysosomal activation in human MCF7 cells at 400 nM upon UV light irradiation measured up to 6 hrs by lysotracker green DND26 dye based confocal microscopic method; type: functional, cell-based
[24] = system: MCF7; experiment: Induction of ROS generation in human MCF7 cells at 400 nM preincubated for 30 mins followed by UV light irradiation measured after 2 hrs by H2DCFDA staining based fluorescence assay relative to control; type: functional
[25] = system: MCF7; experiment: Induction of mitochondrial dysfunction in human MCF7 cells assessed as organelle fusion at 400 nM upon UV light irradiation measured after 6 hrs by mitotracker orange CMTM-ROS/LCS1 dye based confocal microscopic method; type: functional, cell-based

Structure (SMILES)	EC50 [1]	EC50 [2]	Ratio CC50/EC50 [3]	Ratio CC50/EC50 [4]	Ratio CC50/EC50 [5]	CC50 at 72 h [6]	CC50 at 72 h [7]	EC50 [8]	CC50 at 72 h [9]	other results
CCOC(=O)c1cc2c(n1Cc1ccccc1OC)-c1[nH]c(=O)c(S(=O)(=O)c3ccccc3)cc1CCC2	0.94 µM	0.27 µM	>21.36	>74.07	>105.26	> 20 µM	> 20 µM	0.19 µM	> 20 µM	–
COc1ccc(Cn2ccc3c2-c2nc(OC)c(S(=O)(=O)c4ccccc4)cc2CCC3)cc1	4.74 µM	5.67 µM	>4.22	>3.53	>16	> 20 µM	> 20 µM	1.25 µM	> 20 µM	–
CCOC(=O)c1cc2c(n1C)-c1nc(OC)c(S(=O)(=O)c3ccccc3)cc1CCC2	1.7 µM	0.63 µM	>11.76	>31.75	>80	> 20 µM	> 20 µM	0.25 µM	> 20 µM	–
COc1nc2c(cc1S(=O)(=O)c1ccccc1)CCCc1ccn(C)c1-2	2.14 µM	5.76 µM	>9.35	>3.47	>10.2	> 20 µM	> 20 µM	1.96 µM	> 20 µM	–
CCOC(=O)c1cc2c(n1Cc1ccc(OC)cc1)-c1nc(OC)c(S(=O)(=O)c3ccccc3)cc1CCC2	1.01 µM	0.95 µM	>19.71	>21.05	>80	> 20 µM	> 20 µM	0.25 µM	> 20 µM	Activity [10]: Active; Activity [11]: Active; Activity [12]: inactive; Activity [13]: Active; Activity [14]: Active; Activity [15]: inactive; Activity [16]: Dose-dependent effect; solubility [17]: Insoluble; Activity [18]: Active; Activity [19]: Active; Activity [20]: inactive
CCOC(=O)c1cc2c(n1Cc1ccccc1)-c1[nH]c(=O)c(S(=O)(=O)c3ccccc3)cc1CCC2	1.41 µM	0.4 µM	>14.22	>50	>66.67	> 20 µM	> 20 µM	0.3 µM	> 20 µM	–
Cn1ccc2c1-c1[nH]c(=O)c(S(=O)(=O)c3ccccc3)cc1CCC2	2.96 µM	> 20 µM	>6.77	–	–	> 20 µM	> 20 µM	> 20 µM	> 20 µM	–
O=c1[nH]c2c(cc1S(=O)(=O)c1ccccc1)CCCc1ccn(Cc3ccccc3)c1-2	2.72 µM	8.5 µM	>7.36	>2.35	>5.57	> 20 µM	> 20 µM	3.59 µM	> 20 µM	–
CCOC(=O)c1cc2c(n1C)-c1c(cc(S(=O)(=O)c3ccccc3)c(=O)n1C)CCC2	4.76 µM	3.53 µM	>4.2	>5.67	>17.39	> 20 µM	> 20 µM	1.15 µM	> 20 µM	–
COc1cccc(Cn2ccc3c2-c2[nH]c(=O)c(S(=O)(=O)c4ccccc4)cc2CCC3)c1	1.86 µM	> 20 µM	>10.76	–	–	> 20 µM	> 20 µM	> 20 µM	> 20 µM	Activity [21]: inactive; Time [22]: > 30 microsec
CCOC(=O)c1cc2c(n1Cc1cccc(OC)c1)-c1[nH]c(=O)c(S(=O)(=O)c3ccccc3)cc1CCC2	2.58 µM	0.47 µM	>7.77	>42.55	>83.33	> 20 µM	> 20 µM	0.24 µM	> 20 µM	–
COc1ccccc1Cn1ccc2c1-c1[nH]c(=O)c(S(=O)(=O)c3ccccc3)cc1CCC2	0.94 µM	7.68 µM	>21.23	>2.6	>10.53	> 20 µM	> 20 µM	1.9 µM	> 20 µM	–
COc1ccc(Cn2ccc3c2-c2[nH]c(=O)c(S(=O)(=O)c4ccccc4)cc2CCC3)cc1	4.23 µM	2.54 µM	>4.73	>7.87	>21.51	> 20 µM	> 20 µM	0.93 µM	> 20 µM	–
CCCCCCCCCCCCCC(=O)O[C@@H]1[C@@H](C)[C@@]2(O)[C@@H](C=C(CO)C[C@]3(O)C(=O)C(C)=C[C@@H]23)[C@@H]2C(C)(C)[C@]12OC(C)=O [PHORBOL MYRISTATE ACETATE]	–	–	–	–	–	–	–	–	–	Activity [23]: Active; Activity [24]: 120%; Activity [25]: Active
CCOC(=O)c1cc2c(n1C)-c1[nH]c(=O)c(S(=O)(=O)c3ccccc3)cc1CCC2	1 µM	10.7 µM	>20	>1.87	>6.06	> 20 µM	> 20 µM	3.3 µM	> 20 µM	–
